Legend:
Type in all cases: cell-based
Toledo cells = assay: Cell proliferation assay (MTS), Toledo cells; settings: Homo sapiens, 72 h
Method in brief: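 Toledo cells (RPMI-1640, 10% FBS) seeded at 30000 cells/well, rested 4 h, then exposed 72 h at 37 °C, 5% CO2 to compound at nine final concentrations, 1.5–10000 nM. Viability by MTS (2 h), absorbance at 490 nm. IC50 from the concentration-response.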

RS4;11-BCL-2 G101V cells = assay: Cell proliferation assay (MTS), RS4;11-BCL-2 G101V engineered cells; settings: Homo sapiens, 120 h, read-out: RS4, 11 BCL2-G101V IC50
Method in brief: (§1)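 Inhibition of mutant BCL-2 is inferred from reduced proliferation of RS4;11 cells stably overexpressing the mutant. Compounds are tested at 1.5–10000 nM for 120 h (G101V, F104L) or 72 h (D103E, D103Y), with MTS absorbance at 490 nm used to derive IC50.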

RS4;11-BCL-2 F104L cells = assay: Cell proliferation assay (MTS), RS4;11-BCL-2 F104L engineered cells; settings: Homo sapiens, 120 h, read-out: RS4, 11 BCL2-F104L IC50
Method in brief: as §1

RS4;11-BCL-2 D103E cells = assay: Cell proliferation assay (MTS), RS4;11-BCL-2 D103E engineered cells; settings: Homo sapiens, 72 h, read-out: RS4, 11 BCL2-D103E IC50
Method in brief: as §1

RS4;11-BCL-2 D103Y cells = assay: Cell proliferation assay (MTS), RS4;11-BCL-2 D103Y engineered cells; settings: Homo sapiens, 72 h, read-out: RS4, 11 BCL2-D103Y IC50
Excerpt: MTS testing kit was purchased from Promega (Madison, WI, USA). The RPMI-1640, Fetal bovine serum and Penicillin-Streptomycin were purchased from BI (Biological Industries, Beit Haemek, Israel). Puromycin was purchased from Beyotime (shanghai, China). Dimethyl sulfoxide (DMSO) was purchased from Sigma (St. Louis., MO, USA). RS4;11-BCL-2 G101V (Cobioer Lot. #: CBD2021063013P4), RS4;11-BCL-2 D103E (Cobioer Lot. #: CBD2021063013P4), RS4;11-BCL-2 D103Y (Cobioer Lot. #: CBD2022012101P4) and RS4;11-BCL-2 F104L (Cobioer Lot. #: CBD2021063014P4) cells were cultured in RPMI1640 supplemented with 1 ug/mL puromycin, 100 U/mL Penicillin-Streptomycin and 10% FBS.
To investigate whether a compound is able to inhibit the activity of BCL-2 mutation in cells, a mechanism-based assay using engineered cell lines stably overexpressing BCL-2 mutation (RS4;11-BCL-2 G101V, RS4;11-BCL-2 D103E, RS4;11-BCL-2 D103Y, and RS4;11-BCL-2 F104L) was developed. In this assay, the inhibition of BCL-2 mutation was reflected by the inhibition of cell proliferation of engineered RS4;11 cells. Cells were plated into 96-well plates at optimized cell density (RS4;11-BCL-2 G101V: 5000 cells/well; RS4;11-BCL-2 D103E: 7500 cells/well; RS4;11-BCL-2 D103Y: 7500 cells/well; RS4;11-BCL-2 F104L: 5000 cells/well). Plates were incubated at 37° C., with 5% CO2 for 4 h (RS4;11-BCL-2 G101V, RS4;11-BCL-2 F104L) and 24 h (RS4;11-BCL-2 D103E, RS4;11-BCL-2 D103Y), respectively. Compounds were serially diluted and added to the plates with the final concentrations of 10000, 3333.3, 1111.1, 370.4, 123.5, 41.2, 13.7, 4.6 and 1.5 nM. Plates were incubated at 37° C., with 5% CO2 for 120 h (RS4; 11-BCL-2 G101V, RS4; 11-BCL-2 F104L) and 72 h (RS4;11-BCL-2 D103E, RS4;11-BCL-2 D103Y), respectively. 20 μl MTS was added into each well and the plates were incubated at 37° C., with 5% CO2 exactly for 2 h. The absorbance was measured by a microplate reader at 490 nm. IC50 values were calculated using GraphPad Prism 8.0 software.

SMILES | IC50 (Toledo cells) | IC50 (RS4;11-BCL-2 G101V cells) | IC50 (RS4;11-BCL-2 F104L cells) | IC50 (RS4;11-BCL-2 D103E cells) | IC50 (RS4;11-BCL-2 D103Y cells)
COc1ccc(CN2CCN(C3CC4(CCN(c5ccc(C(=O)NS(=O)(=O)c6cnc(NC[C@H]7CC[C@](C)(O)CC7)c([N+](=O)[O-])c6)c(Oc6cc7c(F)c[nH]c7nc6OC)c5)CC4)C3)[C@H](c3ccccc3C(C)C)C2)cc1OC [Example 7, 4-(2-((R)-4-(3,4-dimethoxybenzyl)-2-(2-isopropylphenyl)piperazin-1-yl)-7-azaspiro[3.5]nonan-7-yl)-2-((3-fluoro-6-methoxy-1H-pyrrolo[2,3-b]pyridin-5-yl)oxy)-N-((6-((((1r,4r)-4-hydroxy-4-methylcyclohexyl)methyl)amino)-5-nitropyridin-3-yl)sulfonyl)benzamide] | 1 nM | 1 nM | 1 nM | 2 nM | 9 nM
COc1cc(CN2CCN(C3CC4(CCN(c5ccc(C(=O)NS(=O)(=O)c6cnc(NC[C@H]7CC[C@](C)(O)CC7)c([N+](=O)[O-])c6)c(Oc6cc7c(F)c[nH]c7nc6OC)c5)CC4)C3)[C@H](c3ccccc3C(C)C)C2)cc(O)n1 [Example 69, 2-((3-fluoro-6-methoxy-1H-pyrrolo[2,3-b]pyridin-5-yl)oxy)-N-((6-((((1r,4r)-4-hydroxy-4-methylcyclohexyl)methyl)amino)-5-nitropyridin-3-yl)sulfonyl)-4-(2-((R)-4-((2-hydroxy-6-methoxypyridin-4-yl)methyl)-2-(2-isopropylphenyl)piperazin-1-yl)-7-azaspiro[3.5]nonan-7-yl)benzamide] | – | 1 nM | – | – | 1 nM
COc1ccc(CN2CCN(C3CC4(CCN(c5ccc(C(=O)NS(=O)(=O)c6cnc(NC[C@H]7CC[C@](C)(O)CC7)c([N+](=O)[O-])c6)c(Oc6cnc7[nH]cc(F)c7c6)c5)CC4)C3)[C@H](c3ccccc3C(C)C)C2)cc1OC [Example 74, 4-(2-((R)-4-(3,4-dimethoxybenzyl)-2-(2-isopropylphenyl)piperazin-1-yl)-7-azaspiro[3.5]nonan-7-yl)-2-((3-fluoro-1H-pyrrolo[2,3-b]pyridin-5-yl)oxy)-N-((6-((((1r,4r)-4-hydroxy-4-methylcyclohexyl)methyl)amino)-5-nitropyridin-3-yl)sulfonyl)benzamide] | 1 nM | 1 nM | – | 1 nM | 5 nM
COc1ccc(CN2CCN(C3CC4(CCN(c5ccc(C(=O)NS(=O)(=O)c6cnc(NC[C@H]7CC[C@](C)(O)CC7)c([N+](=O)[O-])c6)c(Oc6cc7c(F)c[nH]c7nc6OC)c5)CC4)C3)[C@H](c3ccccc3C(C)C)C2)cn1 [Example 119, 2-((3-fluoro-6-methoxy-1H-pyrrolo[2,3-b]pyridin-5-yl)oxy)-N-((6-((((1r,4r)-4-hydroxy-4-methylcyclohexyl)methyl)amino)-5-nitropyridin-3-yl)sulfonyl)-4-(2-((R)-2-(2-isopropylphenyl)-4-((6-methoxypyridin-3-yl)methyl)piperazin-1-yl)-7-azaspiro[3.5]nonan-7-yl)benzamide] | 1 nM | 1 nM | 3 nM | 1 nM | 10 nM
COc1nc2[nH]cc(F)c2cc1Oc1cc(N2CCC3(CC2)CC(N2CCN(Cc4ccnc5c4CCO5)C[C@H]2c2ccccc2C(C)C)C3)ccc1C(=O)NS(=O)(=O)c1cnc(NC[C@H]2CC[C@](C)(O)CC2)c([N+](=O)[O-])c1 [Example 190, 4-(2-((R)-4-((2,3-dihydrofuro[2,3-b]pyridin-4-yl)methyl)-2-(2-isopropylphenyl)piperazin-1-yl)-7-azaspiro[3.5]nonan-7-yl)-2-((3-fluoro-6-methoxy-1H-pyrrolo[2,3-b]pyridin-5-yl)oxy)-N-((6-((((1r,4r)-4-hydroxy-4-methylcyclohexyl)methyl)amino)-5-nitropyridin-3-yl)sulfonyl)benzamide] | – | – | – | 1 nM | 8 nM
COc1nc2[nH]cc(F)c2cc1Oc1cc(N2CCC3(CC2)CC(N2CCN(Cc4ccnc5c4NCCO5)C[C@H]2c2ccccc2C(C)C)C3)ccc1C(=O)NS(=O)(=O)c1cnc(NC[C@H]2CC[C@](C)(O)CC2)c([N+](=O)[O-])c1 [Example 192, 4-(2-((R)-4-((2,3-dihydro-1H-pyrido[2,3-b][1,4]oxazin-8-yl)methyl)-2-(2-isopropylphenyl)piperazin-1-yl)-7-azaspiro[3.5]nonan-7-yl)-2-((3-fluoro-6-methoxy-1H-pyrrolo[2,3-b]pyridin-5-yl)oxy)-N-((6-((((1r,4r)-4-hydroxy-4-methylcyclohexyl)methyl)amino)-5-nitropyridin-3-yl)sulfonyl)benzamide] | – | – | – | 1 nM | 1 nM
COc1nc2[nH]cc(F)c2cc1Oc1cc(N2CCC3(CC2)CC(N2CCN(Cc4ccnc5c4NCC(C)O5)C[C@H]2c2ccccc2C(C)C)C3)ccc1C(=O)NS(=O)(=O)c1cnc(NC[C@H]2CC[C@](C)(O)CC2)c([N+](=O)[O-])c1 (stereo partly drawn) [Example 195, 2-((3-fluoro-6-methoxy-1H-pyrrolo[2,3-b]pyridin-5-yl)oxy)-N-((6-((((1r,4r)-4-hydroxy-4-methylcyclohexyl)methyl)amino)-5-nitropyridin-3-yl)sulfonyl)-4-(2-((2R)-2-(2-isopropylphenyl)-4-((3-methyl-2,3-dihydro-1H-pyrido[2,3-b][1,4]oxazin-8-yl)methyl)piperazin-1-yl)-7-azaspiro[3.5]nonan-7-yl)benzamide] | – | – | – | – | 8 nM
COc1nc2[nH]cc(F)c2cc1Oc1cc(N2CCC3(CC2)CC(N2CCN(Cc4ccncc4)C[C@H]2c2ccccc2C(C)C)C3)ccc1C(=O)NS(=O)(=O)c1cnc(NC[C@H]2CC[C@](C)(O)CC2)c([N+](=O)[O-])c1 [Example 239, 2-((3-fluoro-6-methoxy-1H-pyrrolo[2,3-b]pyridin-5-yl)oxy)-N-((6-((((1r,4r)-4-hydroxy-4-methylcyclohexyl)methyl)amino)-5-nitropyridin-3-yl)sulfonyl)-4-(2-((R)-2-(2-isopropylphenyl)-4-(pyridin-4-ylmethyl)piperazin-1-yl)-7-azaspiro[3.5]nonan-7-yl)benzamide] | 1 nM | 1 nM | 1 nM | – | 8 nM
COc1cc(CN2CCN(C3CC4(CCN(c5ccc(C(=O)NS(=O)(=O)c6cnc(NC[C@H]7CC[C@](C)(O)CC7)c([N+](=O)[O-])c6)c(Oc6cc7c(F)c[nH]c7nc6OC)c5)CC4)C3)[C@H](c3ccccc3C(C)C)C2)ncc1C1CC1 [Example 249, 4-(2-((R)-4-((5-cyclopropyl-4-methoxypyridin-2-yl)methyl)-2-(2-isopropylphenyl)piperazin-1-yl)-7-azaspiro[3.5]nonan-7-yl)-2-((3-fluoro-6-methoxy-1H-pyrrolo[2,3-b]pyridin-5-yl)oxy)-N-((6-((((1r,4r)-4-hydroxy-4-methylcyclohexyl)methyl)amino)-5-nitropyridin-3-yl)sulfonyl)benzamide] | – | 1 nM | – | 1 nM | 5 nM
COc1cc(CN2CCN(C3CC4(CCN(c5ccc(C(=O)NS(=O)(=O)c6cnc(NC[C@H]7CC[C@](C)(O)CC7)c([N+](=O)[O-])c6)c(Oc6cc7c(F)c[nH]c7nc6OC)c5)CC4)C3)[C@H](c3ccccc3C(C)C)C2)cnc1C1CC1 [Example 254, 4-(2-((R)-4-((6-cyclopropyl-5-methoxypyridin-3-yl)methyl)-2-(2-isopropylphenyl)piperazin-1-yl)-7-azaspiro[3.5]nonan-7-yl)-2-((3-fluoro-6-methoxy-1H-pyrrolo[2,3-b]pyridin-5-yl)oxy)-N-((6-((((1r,4r)-4-hydroxy-4-methylcyclohexyl)methyl)amino)-5-nitropyridin-3-yl)sulfonyl)benzamide] | 1 nM | 1 nM | 3 nM | – | 3 nM

Source: US20250122191A1, “COMPOUNDS AS BCL-2 INHIBITORS” (Fochon Biosciences, Ltd, priority 2021, published 2025)
